Laboratory results published in ChEMBL document CHEMBL4837260, “Structure-Guided Design of a Small-Molecule Activator of Sirtuin-3 that Modulates Autophagy in Triple Negative Breast Cancer” (J Med Chem, 2021).

Key:
[1] = test system: HL-60; experiment: Antiproliferative activity against human HL-60 cells measured after 24 hrs by MTT assay; format: functional, cell-based; conditions: HL-60, 24 h
[2] = test system: U-937; experiment: Antiproliferative activity against human U-937 cells measured after 24 hrs by MTT assay; format: functional, cell-based; conditions: U-937, 24 h
[3] = test system: MCF7; experiment: Antiproliferative activity against human MCF7 cells measured after 24 hrs by MTT assay; format: functional, cell-based; conditions: MCF7, 24 h
[4] = test system: MDA-MB-231; experiment: Antiproliferative activity against human MDA-MB-231 cells measured after 24 hrs by MTT assay; format: functional, cell-based; conditions: MDA-MB-231, 24 h
[5] = molecular target: T1, NAD-dependent protein deacetylase sirtuin-3, mitochondrial (Homo sapiens, UniProt Q9NTG7); experiment: Activation of recombinant human SIRT3 assessed as lysyl deacetylase activity using (Gln-Pro-Lys-Lys(Ac)) peptide substrate by fluorescent assay
T1 sequence (Q9NTG7 whole entry): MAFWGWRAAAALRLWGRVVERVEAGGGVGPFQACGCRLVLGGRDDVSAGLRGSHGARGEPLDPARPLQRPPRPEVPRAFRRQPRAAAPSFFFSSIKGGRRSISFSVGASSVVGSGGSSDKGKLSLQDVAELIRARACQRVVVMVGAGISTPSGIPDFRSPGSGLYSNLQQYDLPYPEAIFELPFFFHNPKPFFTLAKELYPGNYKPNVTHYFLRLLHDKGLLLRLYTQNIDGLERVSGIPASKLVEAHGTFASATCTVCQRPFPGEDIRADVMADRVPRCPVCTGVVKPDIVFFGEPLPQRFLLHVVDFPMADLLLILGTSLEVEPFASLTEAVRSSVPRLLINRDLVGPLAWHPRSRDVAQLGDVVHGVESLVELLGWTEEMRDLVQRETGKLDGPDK

[6] = Toxicity in BALB/c mouse xenografted with human MDA-MB-231 cells assessed as change in body weight at 100 mg/kg once daily for 1 week; format: organism-based; conditions: in vivo, 168 h, time 1 weeks
[7] = Toxicity in BALB/c mouse xenografted with human MDA-MB-231 cells assessed as widening of the pulmonary septum and more cellular components at 100 mg/kg once daily for 1 week by H&E staining; format: organism-based; conditions: in vivo, 168 h, time 1 weeks
[8] = Toxicity in BALB/c mouse xenografted with human MDA-MB-231 cells assessed as change in body weight at 25 mg/kg once daily for 1 week; format: organism-based; conditions: in vivo, 168 h, time 1 weeks

| Structure (SMILES) | IC50 [1] [µM] | IC50 [2] [µM] | IC50 [3] [µM] | IC50 [4] [µM] | EC50 [5] [µM] | Activity [6] | Activity [7] | Activity [8] |
| --- | --- | --- | --- | --- | --- | --- | --- | --- |
| CCCCc1oc2ccccc2c1C(=O)c1cc(I)c(OCCN2CCCC2)c(I)c1 | 23.2 | 31.7 | > 50 | 20.4 | 16.2 |  |  |  |
| CCCCc1oc2ccccc2c1C(=O)c1cc(I)c(OCCN(C)C)c(I)c1 | 8.22 | 8.68 | 39.4 | 6.6 | 4.69 |  |  |  |
| CCCCc1oc2ccccc2c1C(=O)c1ccc(OCCN(CC)CC)cc1 | 2.77 | 3.47 | 5.26 | 19.4 |  |  |  |  |
| CCCCc1oc2ccccc2c1C(=O)c1cc(I)c(OCCCN2CCN(Cc3ccccc3)CC2)c(I)c1 | > 50 | 41.4 | 28.7 | 15.7 |  |  |  |  |
| CCCCc1oc2ccccc2c1C(=O)c1cc(I)c(OCCCNCc2ccccc2)c(I)c1 | 4.4 | 2.3 | 8.05 | 11.6 | 10.7 |  |  |  |
| CCCCc1oc2ccccc2c1C(=O)c1ccc(OCC(N)=O)cc1 | > 50 | 42.2 | > 50 | > 50 |  |  |  |  |
| CCCCc1oc2ccccc2c1C(=O)c1ccc(OCC(=O)Nc2cccc(OC)c2)cc1 | > 50 | 24.2 | 38.5 | > 50 |  |  |  |  |
| CCCCc1oc2ccccc2c1C(=O)c1ccc(OCCCC(=O)N(C)Cc2ccccc2)cc1 | > 50 | 10.5 | > 50 | > 50 |  |  |  |  |
| CCCCc1oc2ccccc2c1C(=O)c1cc(I)c(OCCCN(C)Cc2ccccc2)c(I)c1 | 8.51 | 6.86 | 8.02 | 54 |  |  |  |  |
| CCCCNC(=O)COc1ccc(C(=O)c2c(CCCC)oc3ccccc23)cc1 | > 50 | 22.8 | > 50 | 34.5 | 18.9 |  |  |  |
| CCCCc1oc2ccccc2c1C(=O)c1ccc(OCCCC(=O)N[C@H](C)c2ccccc2)cc1 | > 50 | 30.7 | > 50 | > 50 |  |  |  |  |
| CCCCc1oc2ccccc2c1C(=O)c1cc(I)c(OCCCC2CCCC2)c(I)c1 | > 50 | 42.2 | > 50 | > 50 |  |  |  |  |
| CCCCNC(=O)CCCOc1ccc(C(=O)c2c(CCCC)oc3ccccc23)cc1 | > 50 | 24.6 | > 50 | 38.1 | 16.7 |  |  |  |
| CCCCc1oc2ccccc2c1C(=O)c1ccc(OCC(=O)N[C@@H](C)c2ccccc2)cc1 | > 50 | 33.8 | 17.9 | > 50 |  |  |  |  |
| CCCCc1oc2ccccc2c1C(=O)c1ccc(OCCCC(=O)NCc2ccccc2)cc1 | 28.9 | 15.8 | 49.7 | > 50 |  |  |  |  |
| CCCCc1oc2ccccc2c1C(=O)c1ccc(OCC(=O)NCc2ccccc2)cc1 | > 50 | 16.3 | 19.6 | > 50 |  |  |  |  |

| Structure (SMILES) | IC50 [1] [µM] | IC50 [2] [µM] | IC50 [3] [µM] | IC50 [4] [µM] | EC50 [5] [µM] | Activity [6] | Activity [7] | Activity [8] |
| --- | --- | --- | --- | --- | --- | --- | --- | --- |
| CCCCc1oc2ccccc2c1C(=O)c1cc(I)c(OCCCN2CCCC2)c(I)c1 |  |  |  |  |  | Non-Toxic | Non-Toxic | Non-Toxic |
| CCCCc1oc2ccccc2c1C(=O)c1cc(I)c(OCCCN2CCN(C)CC2)c(I)c1 | > 50 | > 50 | 5.37 | 8.76 | 3.46 |  |  |  |
| CCCCc1oc2ccccc2c1C(=O)c1cc(Cl)c(OCCCN2CCCC2)c(Cl)c1 | 11.3 | 25.2 | 27.7 | 28.2 | 0.81 |  |  |  |
| CCCCc1oc2ccccc2c1C(=O)c1cc(I)c(OCCCN(CC)CC)c(I)c1 | 16 | 30 | 21.5 | 26.8 | 4.15 |  |  |  |
| CCCCc1oc2ccccc2c1C(=O)c1ccc(OCC(=O)N2CCCCC2)cc1 | > 50 | 37.1 | > 50 | > 50 | 2.68 |  |  |  |
| CCCCc1oc2ccccc2c1C(=O)c1ccc(OCC(=O)N2CCOCC2)cc1 | > 50 | 45.4 | 34 | > 50 | 1.23 |  |  |  |
| CCCCc1oc2ccccc2c1C(=O)c1ccc(OCCCC(=O)N2CCCCC2)cc1 | 31.9 | 16.6 | 33 | 36 | 2.38 |  |  |  |
| CCCCc1oc2ccccc2c1C(=O)c1cc(I)c(OCCCN2CCCCC2)c(I)c1 | 11.5 | 18.2 | 37.9 | 15.7 | 1.65 |  |  |  |
| CCCCc1oc2ccccc2c1C(=O)c1ccc(OCCCC(=O)N[C@@H](C)c2ccccc2)cc1 | > 50 | 22.4 | > 50 | > 50 | 7.01 |  |  |  |
| CCCCc1oc2ccccc2c1C(=O)c1ccc(OCCCC(=O)N2CCOCC2)cc1 | 34 | 21.4 | 41.2 | 31.6 | 3.02 |  |  |  |
| CCCCc1oc2ccccc2c1C(=O)c1ccc(OCC(=O)N[C@H](C)c2ccccc2)cc1 | > 50 | 19.8 | 14.1 | 39 | 17.4 |  |  |  |
| CCCCc1oc2ccccc2c1C(=O)c1ccc(OCCCN2CCCC2)cc1 | 6.38 | 6.82 | 3.73 | 19.5 |  |  |  |  |
| CCCCc1oc2ccccc2c1C(=O)c1cc(I)c(OCCN(CC)CC)c(I)c1 [AMIODARONE] |  |  |  |  | 3.25 |  |  |  |
| C=CCc1ccc(O)c(-c2ccc(O)c(CC=C)c2)c1 [HONOKIOL] |  |  |  | 44.9 | 0.17 |  |  |  |
| Oc1ccc(/C=C/c2cc(O)cc(O)c2)cc1 [RESVERATROL] |  |  |  | 98.8 | 55.2 |  |  |  |
